Assay results taken from ChEMBL document CHEMBL6103636, “Development of Potent SHP2 Allosteric Inhibitors: Design, Synthesis, and Evaluation with Antitumor Effects” (J Med Chem, 2025).
Each block holds one molecule with its values, some of them ahead of it.

Tests used:
[1] = target: T1, Tyrosine-protein phosphatase non-receptor type 11 (Homo sapiens, UniProt Q06124); assay: Inhibition of H2N-LN(pY)IDLDLV-(dPEG80) LST(pY)-ASINFQK-amide-activated SHP2 (unknown origin) using DiFMUP as substrate incubated for 30 mins by fluorescence based assay
T1 sequence (Q06124 whole entry): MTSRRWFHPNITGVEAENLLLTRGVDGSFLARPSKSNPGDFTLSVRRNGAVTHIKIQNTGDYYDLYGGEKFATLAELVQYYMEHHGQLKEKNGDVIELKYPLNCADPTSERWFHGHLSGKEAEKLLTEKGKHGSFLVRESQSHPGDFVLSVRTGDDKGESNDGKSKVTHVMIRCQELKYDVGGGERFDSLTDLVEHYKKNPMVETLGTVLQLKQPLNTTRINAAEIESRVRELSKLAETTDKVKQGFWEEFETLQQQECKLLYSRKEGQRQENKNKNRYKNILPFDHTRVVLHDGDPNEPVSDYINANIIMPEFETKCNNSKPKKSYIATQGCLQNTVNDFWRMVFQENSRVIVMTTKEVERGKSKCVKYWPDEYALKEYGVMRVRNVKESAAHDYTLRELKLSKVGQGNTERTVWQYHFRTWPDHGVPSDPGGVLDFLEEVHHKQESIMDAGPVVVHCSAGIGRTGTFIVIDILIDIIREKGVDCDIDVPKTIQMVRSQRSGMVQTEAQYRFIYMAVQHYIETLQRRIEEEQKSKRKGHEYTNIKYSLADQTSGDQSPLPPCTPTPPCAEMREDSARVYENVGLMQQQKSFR

[2] = Inhibition of ERK phosphorylation in human KYSE520 cells incubated for 2 hrs by fluorescence based assay; format: cell-based; conditions: KYSE-520, 2 h
KYSE-520 cell line = assay: cells; conditions: Homo sapiens, KYSE-520, 72 h
Description: Antiproliferative activity against human KYSE520 cells measured after 72 hrs by Cell Titer-Glo assay

[3] = Toxicity in NU/NU mouse implanted with human KYSE520 cells assessed as abnormalities in kidney at 25 mg/kg, po treated for 20 days by H and E staining based analysis; format: organism-based; conditions: in vivo, 480 h, time 20 day
[4] = Toxicity in NU/NU mouse implanted with human KYSE520 cells assessed as abnormalities in lung at 25 mg/kg, po treated for 20 days by H and E staining based analysis; format: organism-based; conditions: in vivo, 480 h, time 20 day
[5] = Toxicity in NU/NU mouse implanted with human KYSE520 cells assessed as abnormalities in animal at 25 mg/kg, po treated for 20 days; format: organism-based; conditions: in vivo, 480 h, time 20 day
[6] = Toxicity in NU/NU mouse implanted with human KYSE520 cells assessed as drug tolerance at 25 mg/kg, po treated for 20 days; format: organism-based; conditions: in vivo, 480 h, time 20 day
[7] = Toxicity in NU/NU mouse implanted with human KYSE520 cells assessed as abnormalities in heart at 25 mg/kg, po treated for 20 days by H and E staining based analysis; format: organism-based; conditions: in vivo, 480 h, time 20 day
[8] = Toxicity in NU/NU mouse implanted with human KYSE520 cells assessed as body weight loss at 25 mg/kg, po treated for 20 days; format: organism-based; conditions: in vivo, 480 h, time 20 day
[9] = Toxicity in NU/NU mouse implanted with human KYSE520 cells assessed as abnormalities in liver at 25 mg/kg, po treated for 20 days by H and E staining based analysis; format: organism-based; conditions: in vivo, 480 h, time 20 day
[10] = Toxicity in NU/NU mouse implanted with human KYSE520 cells assessed as abnormalities in spleen at 25 mg/kg, po treated for 20 days by H and E staining based analysis; format: organism-based; conditions: in vivo, 480 h, time 20 day

Structure (SMILES): NC1COCC12CCN(c1nc3ccc(Sc4ccnc5c4OC[C@@H]4CCCN54)nc3s1)CC2 (some centres undefined)
IC50 [1]: 434 nM

Structure (SMILES): NC1COCC12CCN(c1nc3ccc(Sc4ccnc5c4OC[C@@H]4CCCN54)cc3s1)CC2 (some centres undefined)
IC50 [1]: 837 nM

Structure (SMILES): CCC1C(O)=C(C(=O)Nc2cccc(Sc3ccc4nc(N5CCC(C)(N)CC5)sc4n3)c2Cl)C(=O)N1C (centres undefined)
IC50 [2]: > 10000 nM
IC50 [1]: 82.7 nM
IC50 (KYSE-520 cell line): > 10000 nM

Structure (SMILES): NC1COCC12CCN(c1nc3ccc(Sc4cccc(NC(=O)C5=C(O)CN(c6ccccc6)C5=O)c4Cl)nc3s1)CC2 (centres undefined)
IC50 [2]: 2150 nM
IC50 [1]: 70.2 nM
IC50 (KYSE-520 cell line): 9250 nM

The next lines start with results.

IC50 [2]: 175 nM
IC50 [1]: 68.1 nM
IC50 (KYSE-520 cell line): 1200 nM
Structure (SMILES): NC1COCC12CCN(c1nc3ccc(Sc4cccc(NC(=O)c5c(O)nc6ccccn6c5=O)c4Cl)nc3s1)CC2 (centres undefined)

IC50 [1]: 372 nM
Structure (SMILES): Nc1cccc(Sc2ccc3nc(N4CCCC(N)CC4)sc3n2)c1Cl (centres undefined)

IC50 [1]: 78.9 nM
Structure (SMILES): NC1COCC12CCN(c1ncc(Sc3ccnc4c3OC[C@@H]3CCCN43)c3nncn13)CC2 (some centres undefined)

IC50 [1]: 623 nM
Structure (SMILES): Nc1nccc(Sc2ccc3nc(N4CC5CC(C4)N5)sc3n2)c1Cl

IC50 [2]: 49 nM
IC50 (KYSE-520 cell line): 241 nM
Structure (SMILES): C[C@@H]1OCC2(CCN(c3cnc(Sc4ccnc(N)c4Cl)c(N)n3)CC2)[C@@H]1N [BATOPROTAFIB]
Activity [3]: Non-toxic
Activity [4]: Non-toxic
Activity [5]: Non-toxic
Activity [6]: Non-toxic
Activity [7]: Non-toxic
Activity [8]: Non-toxic
Activity [9]: Non-toxic
Activity [10]: Non-toxic
